Test results from US20140249139A1, “Quinazoline Derivatives” (NOVARTIS AG, priority 2011, published 2014).

Legend:
[1] = target: T1, PI3K alpha (Homo sapiens, UniProt P42336); assay: Enzymatic PI3K alpha isoform inhibition (lipid kinase activity, Kinase-Glo); format: biochemical; conditions: enzymatic assay
T1 construct: for the p110-a subunit (with a deletion of the first 20 amino acids) are generated; His tag (C); made in house; host or cells: baculovirus BV1075; Tn5 (Trichoplusia ni) or TiniPro insect cells
Method in brief: (§1)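 Reactions were started with ATP (2 μM solution) after the enzyme (10 nM solution) and phosphatidylinositol substrate (5 μg/ml solution) were added to the DMSO-dissolved compounds.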

[2] = system: murine B cells; assay: Murine B cell activation: CD86 expression on CD19 positive B cells after anti-IgM stimulation; format: cell-based; conditions: Balb/c mouse splenocytes, anti-IgM 30 μg/ml, 24 hours, read-out: mCD86/ IC50 CD86
Protocol: PI3Kδ has been recognized to modulate B cell function when cells are stimulated through the B cell receptor (BCR) (Okkenhaug et al. Science 297:1031 (2002). For assessing the inhibitory property of compounds on B cell activation, the upregulation of activation markers CD86 and CD69 on murine B cells derived from mouse spleen […] is measured after stimulation with anti-IgM. CD69 is a well known activation marker for B and T cells (Sancho et al. Trends Immunol. 26:136 (2005). CD86 (also known as B7-2) is primarily expressed on antigen-presenting cells, including B cells. Resting B cells express CD86 at low levels, but upregulate it following stimulation of e.g. the BCR or IL-4 receptor. CD86 on a B cell interacts with CD28 on T cells. This interaction is required for optimal T cell activation and for the generation of an optimal IgG1 response (Carreno et al. Annu Rev Immunol. 20:29 (2002)).
Spleens from Balb/c mice were collected, splenocytes were isolated and washed twice with RPMI containing 10% foetal bovine serum (FBS), 10 mM HEPES, 100 Units/ml penicilline/streptomycine. RPMI supplemented in this way is subsequently referred to as medium. The cells were adjusted to 2.5×10^6 cells/ml in medium and 200 μl cell suspension ([…]) were added to the appropriate wells of 96 well plates.
Then the cells were stimulated by adding 50 μl anti-IgM mAb in medium (final concentration: 30 μg/ml). After incubation for 24 hours at 37° C., the cells were stained with the following antibody cocktails: anti-mouse CD86-FITC, anti-mouse CD69-PerCP-Cy5.5, anti-mouse CD19-PerCP for the assessment of B cells, and anti-mouse CD3-FITC, anti-mouse CD69-PE for the assessment of T cells (2 μl of each antibody/well). After one hour at room temperature (RT) in the dark the cells were transferred to 96 Deepwell plates. The cells were washed once with 1 ml PBS containing 2% FBS and after re-suspension in 200 μl the samples were analyzed on a FACS Calibur flow cytometer. Lymphocytes were gated in the FSC/SSC dot plot according to size and granularity and further analyzed for expression of CD19, CD3 and activation markers (CD86, CD69). Data were calculated from dot blots as percentage of cells positively stained for activation markers within the CD19+ or CD3+ population using BD CellQest Software.
For assessing the inhibitory property of compounds, compounds were first dissolved and diluted in DMSO followed by a 1:50 dilution in medium. Splenocytes from Balb/c mice were isolated, re-suspended and transfered to 96 well plates as described above (200 μl/well). The diluted compounds or solvent were added to the plates (25 μl) and incubated at 37° C. for 1 hour. Then the cultures were stimulated with 25 μl anti-IgM mAb/well (final concentration 30 μg/ml) for 24 hours at 37° C. and stained with anti-mouse CD86-FITC and anti-mouse CD19-PerCP (2 μl of each antibody/well). CD86 expression on CD19 positive B cells was quantified by flow cytometry as described above.

[3] = target: T2, PI3K delta (Homo sapiens, UniProt O00329); assay: Enzymatic PI3K delta isoform inhibition (lipid kinase activity, Kinase-Glo); format: biochemical; conditions: enzymatic assay
T2 construct: for the full-length p110-d subunit are generated and fused by overlapping PCR; His tag (C); made in house; host or cells: baculovirus BV1060; Tn5 (Trichoplusia ni) or TiniPro insect cells
Method in brief: as §1

T2 sequence (O00329 with tags, fused parts or gaps limits assumed, species assumed): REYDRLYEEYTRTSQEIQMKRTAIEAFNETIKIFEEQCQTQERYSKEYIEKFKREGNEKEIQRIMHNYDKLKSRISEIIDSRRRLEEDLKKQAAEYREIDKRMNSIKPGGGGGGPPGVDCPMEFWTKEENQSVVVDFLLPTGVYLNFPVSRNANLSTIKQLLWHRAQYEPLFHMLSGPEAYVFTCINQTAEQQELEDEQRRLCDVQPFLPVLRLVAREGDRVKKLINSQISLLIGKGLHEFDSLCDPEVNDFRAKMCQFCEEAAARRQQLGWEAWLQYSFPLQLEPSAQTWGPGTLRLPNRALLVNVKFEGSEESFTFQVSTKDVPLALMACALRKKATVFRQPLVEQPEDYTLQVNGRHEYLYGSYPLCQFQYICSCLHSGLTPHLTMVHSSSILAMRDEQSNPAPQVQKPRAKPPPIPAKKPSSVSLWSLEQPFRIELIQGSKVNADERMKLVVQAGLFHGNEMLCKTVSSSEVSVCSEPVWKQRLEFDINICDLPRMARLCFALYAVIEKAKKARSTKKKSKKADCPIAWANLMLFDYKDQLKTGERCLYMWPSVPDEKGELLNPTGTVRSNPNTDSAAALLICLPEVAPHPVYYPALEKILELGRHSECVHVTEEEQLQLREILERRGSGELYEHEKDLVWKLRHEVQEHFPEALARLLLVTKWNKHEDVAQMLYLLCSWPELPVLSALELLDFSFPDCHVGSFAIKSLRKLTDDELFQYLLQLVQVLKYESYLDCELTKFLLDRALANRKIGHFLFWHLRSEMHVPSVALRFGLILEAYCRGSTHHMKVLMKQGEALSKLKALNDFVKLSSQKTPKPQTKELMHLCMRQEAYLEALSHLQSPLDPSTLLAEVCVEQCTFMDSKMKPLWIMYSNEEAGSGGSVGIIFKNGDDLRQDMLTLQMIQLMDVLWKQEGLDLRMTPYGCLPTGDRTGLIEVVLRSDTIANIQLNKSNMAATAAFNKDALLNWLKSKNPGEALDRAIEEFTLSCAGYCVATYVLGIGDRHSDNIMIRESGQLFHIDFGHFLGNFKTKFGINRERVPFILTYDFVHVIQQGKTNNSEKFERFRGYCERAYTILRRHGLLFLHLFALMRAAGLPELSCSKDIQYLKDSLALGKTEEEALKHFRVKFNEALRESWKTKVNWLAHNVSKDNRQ
T1 sequence (P42336 with tags, fused parts or gaps limits assumed, species assumed): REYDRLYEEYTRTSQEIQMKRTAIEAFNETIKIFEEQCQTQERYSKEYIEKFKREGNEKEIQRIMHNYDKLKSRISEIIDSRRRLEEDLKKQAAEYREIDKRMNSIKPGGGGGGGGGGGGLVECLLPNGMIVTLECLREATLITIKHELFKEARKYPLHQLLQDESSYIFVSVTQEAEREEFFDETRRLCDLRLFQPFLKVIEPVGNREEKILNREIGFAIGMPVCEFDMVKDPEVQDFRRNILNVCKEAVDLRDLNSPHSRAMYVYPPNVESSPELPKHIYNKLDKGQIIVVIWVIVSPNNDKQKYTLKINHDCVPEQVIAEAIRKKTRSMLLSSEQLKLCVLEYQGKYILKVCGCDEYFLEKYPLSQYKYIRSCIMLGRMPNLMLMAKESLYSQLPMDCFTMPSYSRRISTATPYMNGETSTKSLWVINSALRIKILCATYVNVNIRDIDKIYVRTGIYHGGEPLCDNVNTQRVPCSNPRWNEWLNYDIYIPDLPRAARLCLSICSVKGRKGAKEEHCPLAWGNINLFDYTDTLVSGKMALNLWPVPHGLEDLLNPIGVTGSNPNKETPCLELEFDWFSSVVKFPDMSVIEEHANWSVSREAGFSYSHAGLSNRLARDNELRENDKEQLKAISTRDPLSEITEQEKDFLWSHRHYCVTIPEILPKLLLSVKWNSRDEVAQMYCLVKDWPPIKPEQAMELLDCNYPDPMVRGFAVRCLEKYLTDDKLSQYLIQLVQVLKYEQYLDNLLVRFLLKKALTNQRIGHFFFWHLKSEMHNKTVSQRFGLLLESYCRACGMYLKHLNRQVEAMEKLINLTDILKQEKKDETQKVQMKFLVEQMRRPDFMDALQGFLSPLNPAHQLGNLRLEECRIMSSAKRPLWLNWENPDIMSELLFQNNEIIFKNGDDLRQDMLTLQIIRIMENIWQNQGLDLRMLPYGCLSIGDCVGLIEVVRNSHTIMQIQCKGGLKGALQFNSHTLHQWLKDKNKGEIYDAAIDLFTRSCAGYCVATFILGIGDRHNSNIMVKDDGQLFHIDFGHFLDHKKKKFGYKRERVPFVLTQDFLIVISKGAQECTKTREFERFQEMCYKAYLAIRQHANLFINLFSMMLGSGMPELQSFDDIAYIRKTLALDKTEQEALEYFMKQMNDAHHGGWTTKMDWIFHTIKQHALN

SMILES	IC50 [1] [nM]	IC50 [2] [nM]	IC50 [3] [nM]
COc1ncc(-c2ccc3ncnc(-c4cccc(C(=O)N5CCN(C)CC5)c4)c3c2)cn1 [Example 2]	779	69.5	9.5
COc1ccc(-c2ccc3ncnc(-c4cncc(C(=O)N5CCNC(C)(C)C5)c4)c3c2)cc1C(F)(F)F [Example 81, (3,3-Dimethyl-piperazin-1-yl)-{5-[6-(4-methoxy-3-trifluoromethyl-phenyl)-quinazolin-4-yl]-pyridin-3-yl}-methanone]	401	79	3.62
COc1ccc(-c2ccc3ncnc(-c4cccc(C(=O)N5CCN(C(C)=O)CC5)c4)c3c2)cc1S(=O)(=O)N1CCCC1 [Example 7]	712	20.1	6

Stronger by IC50 [1], values ahead:

IC50 [1] [nM]	IC50 [2] [nM]	IC50 [3] [nM]	SMILES
146	44	< 3	COc1ccc(-c2ccc3ncnc(-c4cccc(C(=O)N5C[C@@H]6C[C@H]5CN6C)c4)c3c2)cn1 [Example 91, {3-[6-(6-Methoxy-pyridin-3-yl)-quinazolin-4-yl]-phenyl}-((1S,4S)-5-methyl-2,5-diaza-bicyclo[2.2.1]hept-2-yl)-methanone]
320	54	12	CNc1ncc(-c2ccc3ncnc(-c4cncc(C(=O)N5CCN(C)CC5)c4)c3c2)cc1C [Example 75, {5-[6-(5-Methyl-6-methylamino-pyridin-3-yl)-quinazolin-4-yl]-pyridin-3-yl}-(4-methyl-piperazin-1-yl)-methanone]
366	155	8	COc1ccc(-c2ccc3ncnc(-c4cc(F)cc(C(=O)N5CCN(C(C)=O)CC5)c4)c3c2)cn1 [Example 110, 1-(4-{3-Fluoro-5-[6-(6-methoxy-pyridin-3-yl)-quinazolin-4-yl]-benzoyl}-piperazin-1-yl)-ethanone]
238	101	9	COc1ccc(-c2ccc3ncnc(-c4ccc(C)c(C(=O)N5CC6CC5CN6C)c4)c3c2)cn1 (stereo not drawn) [Example 117]
